Experimental data reported in US12102709B2, “Anti-obesity agent, anti-dementia agent, deodorant, anti-aging agent, anti-glycation agent, anti-type I allergy agent, hypotensive agent, flavor improving agent, muscle enhancing agent, and bone metabolism improving agent” (Mitsui Sugar Co., Ltd., priority 2018, dated 2024).

Columns and labels:
[1] = AGEs crosslinking cutting test; format: biochemical; settings: PTB 5 mmol/L
Protocol: Next, according to the AGEs crosslinking cutting test, the AGEs decomposition activity of the bagasse decomposition extract (the extract A) was evaluated. […] PPD) having an α-diketone structure was used as a model substrate, which is a known method (for example, Glycative Stress Research 2015, Vol. 2 (No. 2), pp. 58-66). The extract A as a bagasse decomposition extract was dissolved in distill water to a concentration of 20 mg/mL to prepare a test sample. The above prepared sample was added to a reaction solution containing a 0.16 mol/L phosphate buffer solution (pH 7.4), and a […] PPD composition to a concentration of 1/2 (10 mg/mL) and incubated at 37° C. for 8 hours. […] The amount of benzoic acid in the supernatant was analyzed through reversed phase HPLC. The amount of benzoic acid in the reaction solution was determined by subtracting the amount of benzoic acid in the sample that was separately measured. Since 1 mol of PPD produced 1 mol of benzoic acid, the crosslinking cutting rate was calculated according to the following formula. […] Then, the reaction solution was centrifuged at 20° C. and 3,000×g, for 10 minutes, and the amount of benzoic acid in the supernatant was analyzed through reversed phase HPLC. The amount of benzoic acid in the reaction solution was determined by subtracting the amount of benzoic acid in the sample that was separately measured. […]

[2] = tested on: C2C12 cells; assay: Mitochondrial activation test (amount of mitochondria per cell); format: cell-based, mouse; settings: Table 24; positive control; 48 hours; Comparative Example i1-4 = 100%
Protocol: (Cells) • Mouse Myoblasts C2C12 Cells (ATCC, CRL-1772) (Culture Mediums) • Growth culture medium composition: DMEM culture medium, 10% FBS, antibiotics added • Differentiation culture medium composition: DMEM culture medium, 0.5% FBS, antibiotics added C2C12 cells were cultivated using a growth culture medium in a T-75 flask (75 cm^2 U-shaped canted neck cell culture flask, commercially available from Corning Co., Ltd.). The T-75 flask was put into a CO2 incubator (5% CO2, 37° C., wet) and the C2C12 cells were cultured. The culture medium was replaced every other day, and when an 80% confluence was reached, the cells were collected and used for the test. Here, in the following test, regarding a well plate for culturing C2C12 cells, a plate coated with gelatin according to the following coating method was used. […] Then, after the culture supernatant was removed, a differentiation culture medium containing 5 μg/mL Hoechst (reagent for nuclear staining) and 500 nM MitoTracker (mitochondria staining reagent) was added to the well plate, and the fluorescence intensity was measured by the same method as in Test Example i1-1. The amount of mitochondria per cell was calculated by dividing the fluorescence intensity of the differentiation culture medium containing MitoTracker by the fluorescence intensity of the differentiation culture medium containing Hoechst. […]

[3] = tested on: C2C12 cells; assay: Mitochondrial activation test (activity per cell); format: cell-based, mouse; settings: resveratrol 50 μM, 1% (v/v) ethanol; 48 hours; Comparative Example i1-2 = 100%
Protocol: (Cells) • Mouse Myoblasts C2C12 Cells (ATCC, CRL-1772) (Culture Mediums) • Growth culture medium composition: DMEM culture medium, 10% FBS, antibiotics added • Differentiation culture medium composition: DMEM culture medium, 0.5% FBS, antibiotics added C2C12 cells were cultivated using a growth culture medium in a T-75 flask (75 cm^2 U-shaped canted neck cell culture flask, commercially available from Corning Co., Ltd.). The T-75 flask was put into a CO2 incubator (5% CO2, 37° C., wet) and the C2C12 cells were cultured. The culture medium was replaced every other day, and when an 80% confluence was reached, the cells were collected and used for the test. […] Pre-cultured cells were seeded in a 96-well plate for fluorescence observation (optical bottom plate, commercially available from Nunc) at 4×10^4 cells/0.1 mL/well using a growth culture medium. […] Then, the fluorescence intensity was measured with a fluorescent plate reader. The mitochondrial activity per cell was calculated by dividing the fluorescence intensity of the differentiation culture medium containing rhodamine by the fluorescence intensity of the differentiation culture medium containing Hoechst. […] In addition, the relative values (%) in the test samples of Examples i1-4 to i1-6 and Positive Control it when the mitochondrial activity in the test sample of Comparative Example i1-2 was set as 100% were determined.

[4] = tested on: 3T3-L1 cells; assay: 3T3-L1 cell lipid accumulation inhibition test; format: cell-based, mouse; settings: berberine chloride final concentration 1 μg/mL; untreated control = 100%
Protocol: The extract A was dissolved in water to prepare 50 mg/mL of a test solution stock solution. The test solution stock solution was diluted with a DMEM culture medium to prepare a test solution with a specimen concentration of 2,000 μg/mL.
3T3-L1 cells (National Institute of Biomedical Innovation, Health and Nutrition) as mouse adipose progenitor cells were seeded on a 24-well plate, and cultured in a DMEM culture medium containing a newborn calf serum (10 vol %, with respect to a total amount of the culture medium) and a penicillin-streptomycin solution (1 vol %, with respect to a total amount of the culture medium) for 4 days. […]
After the lipid droplets were observed, a pigment extract solution contained in the Adipogenesis Assay Kit was added to samples of Example a1, Comparative Example a1-1, and Positive Control a1-1, and Oil Red O incorporated into the lipid droplets was extracted. The absorbance of the extracted Oil Red O at 520 nm was measured using a microplate reader (SpectraMax M2e, commercially available from Molecular Devices, LLC.).
The lipid accumulation rate was calculated from the absorbance of respective samples according to the following formula. […]

[5] = tested on: human osteoclast precursor cells; assay: Osteoclast differentiation inhibition test 2 (proportion of mononuclear cells); format: cell-based; settings: 7 days
Protocol: It is known that, when osteoclasts mature, cells fuse each other and become multinucleated. Therefore, the proportion of mononuclear cells of osteoclasts was measured, and an osteoclast differentiation inhibition effect was confirmed. Under the same culture conditions as in Example j2-1, human osteoclast precursor cells were cultured using a culture medium containing the extract A with a concentration shown in Table 27 (Example j3-1), a culture medium containing no extract (Comparative Example j3-1), or a culture medium containing melatonin with a concentration shown in Table 27 (Positive Controls j3-1 to j3-2) as positive controls. The proportion of mononuclear cells (%) was calculated by dividing the number of mononuclear cells in the field of view of the microscope by the total number of cells in the field of view.

[6] = tested on: human osteoclast precursor cells; assay: Osteoclast differentiation inhibition test 1 (TRAP staining); format: cell-based; settings: 1,000 μM melatonin; 7 days; FIG. 11
Protocol: (Cells) • Human osteoclast precursor cells (commercially available from Cosmo Bio Co., Ltd. PT-267 Lot. RBW-F-OSH-HBV) Using the above culture medium, 250 μg/mL of a solution containing the extract A was prepared, and this was used as a test solution (Example j2-1). Human osteoclast precursor cells were seeded in a 96-well culture plate at about 0.3×10^5 cells/50 μl/well. A test solution was added thereto at 50 μL/well and culturing was performed under conditions of 37° C. and 5% CO2 for 7 days. The cultured cells were stained with TRAP using a TRAP staining kit, and observed under a microscope. In the same manner, the same test was performed on a culture medium to which no test solution was added (Comparative Example j2-1) and a culture medium containing 1,000 μM melatonin (Positive Control j2) as a positive control.

## O=C(C[n+]1ccsc1)c1ccccc1.[Br-] [PTB, N-phenacylthiazoliumbromide]
[1]; Test Example e2
  Crosslinking cutting rate: 20.1%
[1]; Test Example e4
  Crosslinking cutting rate: 22.4%

## Oc1ccc(C=Cc2cc(O)cc(O)c2)cc1 [Positive Control i1-1, resveratrol]
[2]
  Amount of mitochondria per cell (relative value, %): 178.4 ± 9.6%
[3]
  Mitochondrial activity per cell (relative value, %): 178.4 ± 9.6%

## COc1ccc2cc3[n+](cc2c1OC)CCc1cc2c(cc1-3)OCO2 [Positive Control a1-1, berberine chloride]
[4]
  Lipid accumulation rate: 19±1.0%

## COc1ccc2[nH]cc(CCNC(C)=O)c2c1 [Positive Control j3-1, melatonin]
[5]; melatonin 500 μM
  Proportion of mononuclear cells (%) (average N = 3): 88%
[5]; melatonin 1,000 μM
  Proportion of mononuclear cells (%) (average N = 3): 100%
[6]
  Microscopic observation of TRAP-stained osteoclasts: a decrease in the number of osteoclasts was also observed
